Measurements taken from patent US10335488B2, “Method for treating cancer by photodynamic therapy” (D. R. NANO CO., LTD., priority 2014, dated 2019).

What was measured:
[1] = system: cancer cells MDA-MB-231, MCF-7, PC-3, HeLa, HT-29; normal cells MRC-5, clone 1-5c-4, NIH/3T3; test: Accumulation in cells by fluorescence microscopy; assay type: cell-based, human; mouse (NIH/3T3); details: 1 hour incubation, fluorescence microscope
Experimental: In order to determine if the nanoparticles (MB NPs) prepared in Example 1 would be accumulated in the cancer cell, 1×10^5 of each of cancer cells MDA-MB-231 (breast, mammary gland/human, Korean Cell Line Bank), MCF-7 (breast, mammary gland/human, Korean Cell Line Bank), PC-3 (prostate; grade 4; metastasis to bone/human, Korean Cell Line Bank), HeLa (cervix/human, Korean Cell Line Bank), and HT-29 (Colon/human, Korean Cell Line Bank) was respectively dispersed in 2 mL of cell culture solution [DMEM (WELGENE) culture solution was used for the HeLa cell, and RPMI1640 (WELGENE) culture solution was used for the other cells]. And then the solution was put into a dish for cell culture (35 mm, glass-bottomed dish), and cultured in a culture chamber (5% CO2, 37° C.). After 24 hours, the dish was washed with 2 mL of DPBS (WELGENE), and 1.8 mL of the culture solution and 0.2 mL of the nanoparticles were added thereto, and the resulting dish was stored in a culture chamber (5% CO2, 37° C.) for 1 hour. The stored cell culture dish was washed with 2 mL of DPBS, cells were fixed with 1 mL of a cell fixation solution, and then fluorescence images were observed by fluorescence microscope (LEICA DMI3000B equipped with a Nuance FX multispectral imaging system, CRI). […]

[2] = system: cancer cells (MDA-MB-231, MCF-7, PC-3, HeLa, HT-29) and normal cells (MRC-5, Clone-1-5c-4, NIH3T3); test: Cytotoxicity (Dark) by MTT analysis; assay type: cell-based, human; mouse (NIH/3T3); details: 1 hour incubation, no laser
Experimental: In order to confirm of the cytotoxicity of MB NPs, 200 μL of a cell culture solution in which 1×10^4 ea of cells were dispersed was put into a dish for cell culture (96-well plate) and cultured (5% CO2, 37° C.) in an artificial culture chamber for 24 hours, and the dish was washed with DPBS, and then a mixture solution of 20 μL of MB NPs and 180 μL of a cell culture solution was added to the cell, and the resulting culture solution was cultured in the same artificial culture chamber for 1 hour. After the dish was washed with DPBS, the number of each cell was observed by the MTT analysis method.
The experiment was performed on cancer cells and normal cells, and MDA-MB-231 cell, MCF-7 cell, PC-3 cell, HeLa cell, and HT-29 cell are illustrated in FIGS. 7a, 7b, 7c, 7d, and 7e, respectively, and normal cells MRC-5, Clone-1-5c-4, and NIH3T3 are illustrated in FIGS. 8a to 8c, respectively.

CN(C)c1ccc2nc3ccc(=[N+](C)C)cc-3sc2c1 [MB Sol., methylene blue]
infiltration capacity into cell [1]: not found in the cell
cytotoxicity of the material (Dark) [2]: no cytotoxicity of the material itself
